Earlier results, collected in patent US20240335377A1, “COMPOSITION AND METHODS OF TREATMENT USING TRANSDERMAL SUPPLEMENTATION” (Xygenyx Inc., priority 2023, published 2024).
Where a SMILES comes first, the peptide text is derived from it. [ ]: non-standard residue; d: D form. Cit = NC(=O)NCCC[C@H](N)C(=O)O

Columns and labels:
[1] = test system: wide dynamic range neurons in the ventroposterolateral nucleus of the thalamus
skin [2] = conditions: single penetration enhancer
rheumatoid arthritis = rheumatoid arthritis study
[3] = α-tocopherol taken as 1.0
[4] = even when dietary intake occurs in equal portions
[5] = in vivo
skin [6] = conditions: topical, concentrations 0.5-5%
F2-isoprostane = conditions: large doses of 1600-3200 IU/day
[7] = dietary supplementation, doses up to 400 IU/day
markers of inflammation = conditions: supplementation, individuals with metabolic syndrome
skin [8] = conditions: topical formulations, within four weeks of treatment

CCCCCc1cc(O)c2c(c1)OC(C)(C)[C@@H]1CCC(C)=C[C@@H]21 [THC, Δ-9-tetrahydrocannabinol]
power in mediating pain relative to morphine [1]: ten times more powerful than morphine

CC12CCC(CC1)C(C)(C)O2 [eucalyptol, Eucalyptol]
increase of transdermal drug uptake (factor) (skin [2]): more than 10

C=C1CC/C=C(\C)CC[C@@H]2[C@@H]1CC2(C)C [β-caryophyllene]
swelling of joints and lymph nodes, circulating and articular leukocytes (rheumatoid arthritis): reduced swelling of joints and lymph nodes as well as the number of circulating and articular leukocytes

Cc1c(O)cc2c(c1C)OC(C)(CCCC(C)CCCC(C)CCCC(C)C)CC2 (stereo not shown) [γ-tocopherol]
relative biological activity [3]: 0.1
concentration in vivo relative to α-tocopherol [4]: roughly 10%

CC1CCC(C(C)C)C(O)C1 (stereo not shown) [Menthol]
increase of transdermal drug uptake (factor) (skin [2]): ≥ 10

Cc1cc(O)c(C)c2c1OC(C)(CCCC(C)CCCC(C)CCCC(C)C)CC2 (stereo not drawn) [β-tocopherol]
relative biological activity [3]: 0.5

HGH: hormone comprising a peptide chain that is synthesized in the pituitary gland
biological half-life [5]: 10-20 minutes

C=CCCCCCCCCC(=O)N[C@@H](Cc1ccccc1)C(=O)O [UP, Undecylenoyl phenylalanine]
time to skin lightening effects (skin [6]): ≥ 7 days

Cc1c(C)c2c(c(C)c1O)CCC(C)(CCCC(C)CCCC(C)CCCC(C)C)O2 (stereo not drawn) [α-tocopherol]
blood plasma concentration of F2-isoprostane (F2-isoprostane): significantly lower
reduction of risk of coronary disease [7]: up to 34%
reduction of risk of developing neurodegenerative diseases such as Alzheimer's Syndrome or dementia ([7]; controlled trials): ≤ 24%

C/C(=C\CO)CCC[C@H](C)CCC[C@H](C)CCCC(C)C [phytol, Phytol]
solubility in water: nearly insoluble in water

Cc1cc(O)cc2c1OC(C)(CCCC(C)CCCC(C)CCCC(C)C)CC2 (stereo not shown) [δ-tocopherol]
markers of inflammation in the blood (markers of inflammation): reduced markers of inflammation
relative biological activity [3]: 0.03

CC[C@H](C)[C@H](NC(=O)[C@H](CC(=O)O)NC(=O)[C@@H](N)CCCCN)C(=O)N[C@@H](CCCNC(N)=O)C(N)=O [tripeptide-10 citrulline, Tripeptide-10 citrulline] (H-KDI[Cit]-NH2)
improvement of suppleness (skin [8]): ≤ 54%
